Here are results for one molecule from publication PMC12640663 (Chemmedchem, 2025).

Entries after “also recorded” stand apart in the source; their conditions may differ.

By IC50 is commonly meant the point on the concentration scale where inhibition reaches its midpoint.

For test [1], the system named is insulin‐resistant HepG2 cells. The test can be described thus: Insulin‐resistant HepG2 model, western blotting of PTP1B and pAKT. Format: cell-based. Conditions: 24 h, western blot. Here is the method:
Subsequently, we evaluated the same compounds in a HepG2 insulin‐resistant model.
Bar graphs represent the mean ± SEM of normalized values. The control levels were set at 1. T‐test significance *p < 0.05, when compared with control (DMSO). Statistical analyses were carried out using GraphPad Prism 8.0.
For the resistant insulin model using HepG2 cells, the following reagents were acquired from Sigma–Aldrich (Toluca, MEX, Mexico, and St. Louis, MO, USA): Insulin (I2643), Dulbecco's modified eagle's medium (DMEM) low glucose media (D5523), Trypsin‐EDTA solution (T4174), antibiotic‐antimycotic solution(A5955), dimethyl sulfoxide (DMSO‐D8418), sodium deoxycholate (D6750), triethylammonium bicarbonate buffer 1 M (TEAB‐T7408), glutaraldehyde 25% (G6275), acetic acid (695092), and crystal violet (C0775). The bicinchoninic acid protein quantitation kit (23225) and the Halt Cocktail with protease and phosphatase inhibitors (1861281) were acquired from ThermoFisherScientific. Fetal bovine serum (26140–079) was from Gibco. The chemiluminescent solution (170–5061) was acquired from Biorad. Rabbit anti‐PTP1B (5311S) and mouse anti‐β actin (3700S) primary antibodies were obtained from Cell Signaling, and secondary antibodies coupled with horseradish peroxidase were from Jackson laboratories (rabbit‐111−035, mouse‐115–035).
Treated cells with compounds were washed twice with 1 mL of PBS, and protein was extracted using 500 µL of a buffer solution containing 10% sodium deoxycholate in 10% TEAB, supplemented with a protease and phosphatase inhibitor cocktail. The extracts were heated to 80 °C for 5 min and disaggregated through passages with an insulin syringe. The cell extracts were centrifuged at 15,000 rpm for 15 min at 4 °C, and the supernatant was collected. Protein quantification was performed using the bicinchoninic acid assay method, and aliquots were prepared for western blotting. SDS/PAGE was conducted, and proteins were transferred onto a nitrocellulose membrane. The membrane was then blocked with 10% skimmed milk in TBST for 1 h and incubated overnight with primary antibodies (1:400 dilution). Secondary antibodies coupled to horseradish peroxidase were diluted 1:2000, and membranes were incubated for 1 h. The blots were documented using the ChemiDoc MP (Bio‐Rad), and densitometric analysis was performed using ImageJ (U.S. National Institutes of Health). Statistical analyses were carried out using GraphPad Prism 8.0.

The target in the next test is T1, TCPTP (Homo sapiens, UniProt P17706).
T1 sequence (P17706 1-415): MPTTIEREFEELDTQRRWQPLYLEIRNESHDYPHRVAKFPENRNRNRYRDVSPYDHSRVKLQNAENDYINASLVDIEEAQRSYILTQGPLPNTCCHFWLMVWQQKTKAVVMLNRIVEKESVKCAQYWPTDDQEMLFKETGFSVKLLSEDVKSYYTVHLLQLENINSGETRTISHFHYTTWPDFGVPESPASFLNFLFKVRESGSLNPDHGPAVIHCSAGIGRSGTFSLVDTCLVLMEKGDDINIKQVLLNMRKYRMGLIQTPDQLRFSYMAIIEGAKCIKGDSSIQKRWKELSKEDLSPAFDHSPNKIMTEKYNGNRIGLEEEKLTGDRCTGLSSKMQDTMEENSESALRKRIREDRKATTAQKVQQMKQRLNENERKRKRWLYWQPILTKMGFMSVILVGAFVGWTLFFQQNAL
In words: T‐cell protein tyrosine phosphatase (TCPTP) activity assay (p‐NPP). As to conditions: ± S.D; assessed up to 100 μM; read-out: TCPTP IC50. Format: biochemical. Here is the method:
The effectiveness and safety of protein tyrosine phosphatase (PTP) inhibitors depend on their specificity. PTP1B and TCPTP serve different functions: PTP1B is involved in metabolism and cancer, while TCPTP regulates immune function. Inhibiting TCPTP could impact the immune response, whereas inhibiting PTP1B may benefit metabolic diseases without these side effects.^[ [20] ^, [34] ^, [35] ^] […] These compounds were assessed up to 100 μM (Table 1).
TCPTP enzyme reported by Mendoza et al. was used for this assay. […] Aliquots of 0–10 µL (triplicate) of the newly synthesized compounds, positive control, and solvent were taken. These were incubated with 85 µL of enzyme solution (Tris, 50 mM, pH 6.8, TCPTP) and 5 µL of substrate (p‐NPP, 10 mM) for 15 min at 37 °C.

Another test deals with T2, hPTP1B1–400 (Homo sapiens, UniProt P18031).
T2 sequence (P18031 1-400): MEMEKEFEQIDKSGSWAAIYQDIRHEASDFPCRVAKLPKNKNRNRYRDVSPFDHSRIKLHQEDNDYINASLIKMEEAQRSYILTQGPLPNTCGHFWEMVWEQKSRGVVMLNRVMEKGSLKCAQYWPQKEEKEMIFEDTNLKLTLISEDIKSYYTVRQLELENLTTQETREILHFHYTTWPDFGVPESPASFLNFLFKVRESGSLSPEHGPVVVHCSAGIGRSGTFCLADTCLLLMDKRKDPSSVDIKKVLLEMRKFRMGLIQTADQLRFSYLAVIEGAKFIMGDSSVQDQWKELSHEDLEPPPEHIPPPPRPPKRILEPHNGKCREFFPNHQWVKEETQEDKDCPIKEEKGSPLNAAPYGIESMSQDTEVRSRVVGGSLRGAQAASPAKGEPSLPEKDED
The test can be described thus: PTP1B activity assay, long form hPTP1B1–400 (p‐NPP). Format: biochemical. The arrangement: hPTP1B1–400 (the long form with an intrinsically disordered C‐terminal regulatory domain). As to conditions: ± S.D; p‐NPP substrate, 15 min at 37 °C, triplicate. The protocol: The inhibitory activity of PTP1B was assessed using two enzyme variants: hPTP1B1–285 (the short form with an N‐terminal catalytic domain) and hPTP1B1–400 (the long form with an intrinsically disordered C‐terminal regulatory domain). […] According to Coronel‐Tovar et al., the disordered region of the C‐terminal domain plays a crucial role in modulating PTP1B enzymatic activity.^[ [30] ^] […] Different concentrations of the compounds were evaluated to determine their IC50 values (Table 1 ).
Recombinant human protein tyrosine phosphatase 1B, consisting of 400 and 285 amino acid residues, was used.^[ [35] ^] […] Aliquots of 0–10 µL of the test compounds (triplicate) were taken and incubated for 15 min at 37 °C with 85 µL of Tris buffer solution (50 mM, pH 6.8) containing PTP1B enzyme and 5 µL of p‐nitrophenyl phosphate substrate (p‐NPP, 10 mM). Absorbance was then measured at a wavelength of 405 nm. The inhibitory activity was determined according to Equation (1). (1) % PTP1B=(A405b/A405c)×100 where % PTP1B: Is the percentage of inhibition. A 405c: Is the corrected absorbance of the blank (A 405initial–A 405final). A 405b: Is the corrected absorbance of the compounds (A 405control–A 405compound).

With `CC1(C(=O)O)CCC2(C)CCC3(C)C(=CC(=O)C4C5(C)Cc6c([nH]c7ccc(C(F)(F)F)cc67)C(C)(C)C5CCC43C)C2C1` (stereo not drawn) [Compound 3c], the “AKT phosphorylation (pAKT) levels” value in test [1] was “slight increase; also recorded: slightly increased pAKT levels”. In addition, the results for the half-inhibitory concentration (IC50) on TCPTP and at hPTP1B1–400 were more than 100000 nM and 2060 ± 80 nM, respectively.
